The target of the assay is monoacylglycerol lipase (MGL) (Rattus norvegicus, UniProt Q8R431). Put plainly: biochemical.

The results in this text go back to paper PMC4459529 (Chemistry & biology, 2015).

monoacylglycerol lipase (MGL), sequence (Q8R431 whole entry): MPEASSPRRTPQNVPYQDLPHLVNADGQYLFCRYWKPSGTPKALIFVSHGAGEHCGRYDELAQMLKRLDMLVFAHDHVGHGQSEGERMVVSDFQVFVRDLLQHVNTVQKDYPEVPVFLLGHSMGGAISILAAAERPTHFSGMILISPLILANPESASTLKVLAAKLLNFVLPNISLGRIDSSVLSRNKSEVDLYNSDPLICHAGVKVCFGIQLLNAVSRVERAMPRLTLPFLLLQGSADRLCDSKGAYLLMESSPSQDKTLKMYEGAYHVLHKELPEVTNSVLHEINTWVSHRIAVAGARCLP

In general, IC50 refers to the concentration at which inhibition is half-maximal. Lower therefore signals greater potency. `OO` [hydrogen peroxide] gave an IC50 of 8.2 ± 1.3 µM.
